The results in this text go back to PMC5564600 (Oncotarget, 2017).

Common to all, as to experiment: biochemical
Holding throughout (assay type): binding

Assay [1] addresses T1, panel of 442 kinases (Homo sapiens, UniProt Q6XUX3).
T1 construct: purchased Ambit Biosciences (scanMAXX KINOMEscan)
T1 sequence (Q6XUX3 1-929): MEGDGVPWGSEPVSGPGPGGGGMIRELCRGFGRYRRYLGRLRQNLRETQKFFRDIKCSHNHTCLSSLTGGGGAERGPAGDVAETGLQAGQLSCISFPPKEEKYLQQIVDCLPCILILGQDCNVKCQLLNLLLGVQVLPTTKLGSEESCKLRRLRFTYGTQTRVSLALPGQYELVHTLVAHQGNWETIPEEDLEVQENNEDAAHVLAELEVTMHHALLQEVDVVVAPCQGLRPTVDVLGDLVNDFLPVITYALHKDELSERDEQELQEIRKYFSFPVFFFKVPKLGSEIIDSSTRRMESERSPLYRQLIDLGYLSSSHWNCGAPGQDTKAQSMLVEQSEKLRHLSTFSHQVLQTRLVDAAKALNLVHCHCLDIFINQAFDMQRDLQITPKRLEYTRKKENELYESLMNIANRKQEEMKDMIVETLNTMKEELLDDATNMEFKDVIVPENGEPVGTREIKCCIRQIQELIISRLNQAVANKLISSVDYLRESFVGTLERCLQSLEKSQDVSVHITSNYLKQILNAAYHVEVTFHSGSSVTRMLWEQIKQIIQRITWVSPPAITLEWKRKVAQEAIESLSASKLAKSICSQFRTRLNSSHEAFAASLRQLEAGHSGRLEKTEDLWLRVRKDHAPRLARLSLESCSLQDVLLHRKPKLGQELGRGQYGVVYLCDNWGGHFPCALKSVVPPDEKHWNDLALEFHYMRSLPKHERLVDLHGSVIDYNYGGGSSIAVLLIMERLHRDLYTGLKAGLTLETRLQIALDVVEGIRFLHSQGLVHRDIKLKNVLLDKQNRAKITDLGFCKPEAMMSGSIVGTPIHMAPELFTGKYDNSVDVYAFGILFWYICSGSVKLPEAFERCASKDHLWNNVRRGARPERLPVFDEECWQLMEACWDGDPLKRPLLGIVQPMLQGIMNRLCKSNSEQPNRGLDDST
To be noted: kinase RIPK5; for remaining activity at 1 µM: read-out: RIPK5 (% of control at 1 µM).

Assay [2] deals with T2, panel of 442 kinases (Homo sapiens, UniProt Q06418).
T2 construct: purchased Ambit Biosciences (scanMAXX KINOMEscan)
T2 sequence (Q06418 41-890): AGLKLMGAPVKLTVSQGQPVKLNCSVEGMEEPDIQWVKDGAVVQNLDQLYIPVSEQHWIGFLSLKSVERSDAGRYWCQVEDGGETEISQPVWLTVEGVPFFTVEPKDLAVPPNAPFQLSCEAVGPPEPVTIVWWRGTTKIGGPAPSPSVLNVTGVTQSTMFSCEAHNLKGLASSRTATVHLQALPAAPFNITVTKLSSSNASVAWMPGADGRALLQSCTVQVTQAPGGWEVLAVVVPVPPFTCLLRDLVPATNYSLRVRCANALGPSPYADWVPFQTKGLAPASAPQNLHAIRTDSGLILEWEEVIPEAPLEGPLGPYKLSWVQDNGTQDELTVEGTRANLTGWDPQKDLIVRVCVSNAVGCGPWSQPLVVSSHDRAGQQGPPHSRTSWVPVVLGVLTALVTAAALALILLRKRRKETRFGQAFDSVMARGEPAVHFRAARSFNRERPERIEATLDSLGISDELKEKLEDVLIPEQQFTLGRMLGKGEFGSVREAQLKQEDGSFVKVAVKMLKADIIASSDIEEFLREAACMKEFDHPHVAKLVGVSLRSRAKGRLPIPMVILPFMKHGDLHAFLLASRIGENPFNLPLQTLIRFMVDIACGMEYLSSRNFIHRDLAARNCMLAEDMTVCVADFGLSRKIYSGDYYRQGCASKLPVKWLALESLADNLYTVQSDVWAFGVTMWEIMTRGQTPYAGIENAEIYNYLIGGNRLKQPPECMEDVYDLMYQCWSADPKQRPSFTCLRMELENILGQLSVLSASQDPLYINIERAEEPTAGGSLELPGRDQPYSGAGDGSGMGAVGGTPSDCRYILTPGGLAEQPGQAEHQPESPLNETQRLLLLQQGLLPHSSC
Conditions: kinase TYRO3; for remaining activity at 1 µM: read-out: TYRO3 (% of control at 1 µM).

The target of assay [3] is T3, panel of 442 kinases (Homo sapiens, UniProt P29322).
T3 construct: purchased Ambit Biosciences (scanMAXX KINOMEscan)
T3 sequence (P29322 28-1005): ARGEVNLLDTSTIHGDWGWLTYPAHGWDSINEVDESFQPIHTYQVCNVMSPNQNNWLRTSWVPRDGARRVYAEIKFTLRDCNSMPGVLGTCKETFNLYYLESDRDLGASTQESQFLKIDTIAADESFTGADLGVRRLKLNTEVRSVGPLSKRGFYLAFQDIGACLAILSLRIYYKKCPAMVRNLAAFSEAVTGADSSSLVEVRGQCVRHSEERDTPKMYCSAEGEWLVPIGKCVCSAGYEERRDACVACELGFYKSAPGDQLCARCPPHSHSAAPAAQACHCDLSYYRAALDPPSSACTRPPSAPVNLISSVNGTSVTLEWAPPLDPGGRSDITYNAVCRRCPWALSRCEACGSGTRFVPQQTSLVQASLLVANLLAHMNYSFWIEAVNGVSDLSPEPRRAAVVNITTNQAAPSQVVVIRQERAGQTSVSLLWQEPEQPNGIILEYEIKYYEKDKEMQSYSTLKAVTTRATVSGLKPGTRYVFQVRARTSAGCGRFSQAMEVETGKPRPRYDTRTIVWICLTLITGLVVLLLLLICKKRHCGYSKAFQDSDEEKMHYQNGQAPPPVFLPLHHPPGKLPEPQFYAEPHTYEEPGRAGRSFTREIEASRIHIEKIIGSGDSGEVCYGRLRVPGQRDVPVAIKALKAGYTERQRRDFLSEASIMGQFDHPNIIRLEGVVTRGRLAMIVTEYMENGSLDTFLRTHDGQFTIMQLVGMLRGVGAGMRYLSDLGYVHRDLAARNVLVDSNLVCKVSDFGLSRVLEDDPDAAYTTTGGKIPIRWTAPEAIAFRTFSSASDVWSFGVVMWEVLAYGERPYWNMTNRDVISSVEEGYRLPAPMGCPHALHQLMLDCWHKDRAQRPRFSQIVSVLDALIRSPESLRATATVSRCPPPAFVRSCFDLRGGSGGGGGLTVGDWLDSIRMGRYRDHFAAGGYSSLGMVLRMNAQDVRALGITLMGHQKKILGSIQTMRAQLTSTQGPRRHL
Conditions: EPHA8; for remaining activity at 1 µM: read-out: % of control at 1 µM.

Assay [4] has as its target T4, panel of 442 kinases (Homo sapiens, UniProt Q13164).
T4 construct: purchased Ambit Biosciences (scanMAXX KINOMEscan)
To be noted: ERK5; for remaining activity at 1 µM: read-out: % of control at 1 µM.

Assay [5] concerns the target T5, panel of 442 kinases (Homo sapiens, UniProt P42338).
T5 construct: purchased Ambit Biosciences (scanMAXX KINOMEscan)
To be noted: kinase PIK3CB; 1 µM; read-out: % of control at 1 µM.

Where [6] appears, read: 10 µM, read-out: % of control at 10 µM.

T4 sequence (Q13164 whole entry): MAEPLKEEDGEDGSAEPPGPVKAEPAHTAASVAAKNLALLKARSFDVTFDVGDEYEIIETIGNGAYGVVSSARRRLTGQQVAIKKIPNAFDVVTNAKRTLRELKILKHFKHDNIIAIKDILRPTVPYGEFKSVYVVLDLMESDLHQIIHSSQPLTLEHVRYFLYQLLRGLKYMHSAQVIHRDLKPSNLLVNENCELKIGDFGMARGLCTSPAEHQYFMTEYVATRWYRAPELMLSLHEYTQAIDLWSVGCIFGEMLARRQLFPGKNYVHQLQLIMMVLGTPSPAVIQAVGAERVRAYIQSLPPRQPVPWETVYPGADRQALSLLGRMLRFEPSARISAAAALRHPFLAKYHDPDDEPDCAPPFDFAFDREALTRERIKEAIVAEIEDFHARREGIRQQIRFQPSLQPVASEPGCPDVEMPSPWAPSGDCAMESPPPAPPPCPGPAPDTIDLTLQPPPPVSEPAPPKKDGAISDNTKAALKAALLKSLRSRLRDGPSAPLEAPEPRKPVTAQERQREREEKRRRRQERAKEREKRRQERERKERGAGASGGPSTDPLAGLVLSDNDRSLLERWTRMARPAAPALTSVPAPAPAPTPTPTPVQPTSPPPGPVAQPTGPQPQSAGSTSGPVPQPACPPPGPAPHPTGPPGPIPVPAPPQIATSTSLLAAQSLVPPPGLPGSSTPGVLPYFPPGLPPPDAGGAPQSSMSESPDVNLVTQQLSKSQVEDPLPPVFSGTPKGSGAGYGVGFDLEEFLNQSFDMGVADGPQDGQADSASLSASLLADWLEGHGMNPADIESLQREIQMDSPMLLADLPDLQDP
T5 sequence (P42338 whole entry): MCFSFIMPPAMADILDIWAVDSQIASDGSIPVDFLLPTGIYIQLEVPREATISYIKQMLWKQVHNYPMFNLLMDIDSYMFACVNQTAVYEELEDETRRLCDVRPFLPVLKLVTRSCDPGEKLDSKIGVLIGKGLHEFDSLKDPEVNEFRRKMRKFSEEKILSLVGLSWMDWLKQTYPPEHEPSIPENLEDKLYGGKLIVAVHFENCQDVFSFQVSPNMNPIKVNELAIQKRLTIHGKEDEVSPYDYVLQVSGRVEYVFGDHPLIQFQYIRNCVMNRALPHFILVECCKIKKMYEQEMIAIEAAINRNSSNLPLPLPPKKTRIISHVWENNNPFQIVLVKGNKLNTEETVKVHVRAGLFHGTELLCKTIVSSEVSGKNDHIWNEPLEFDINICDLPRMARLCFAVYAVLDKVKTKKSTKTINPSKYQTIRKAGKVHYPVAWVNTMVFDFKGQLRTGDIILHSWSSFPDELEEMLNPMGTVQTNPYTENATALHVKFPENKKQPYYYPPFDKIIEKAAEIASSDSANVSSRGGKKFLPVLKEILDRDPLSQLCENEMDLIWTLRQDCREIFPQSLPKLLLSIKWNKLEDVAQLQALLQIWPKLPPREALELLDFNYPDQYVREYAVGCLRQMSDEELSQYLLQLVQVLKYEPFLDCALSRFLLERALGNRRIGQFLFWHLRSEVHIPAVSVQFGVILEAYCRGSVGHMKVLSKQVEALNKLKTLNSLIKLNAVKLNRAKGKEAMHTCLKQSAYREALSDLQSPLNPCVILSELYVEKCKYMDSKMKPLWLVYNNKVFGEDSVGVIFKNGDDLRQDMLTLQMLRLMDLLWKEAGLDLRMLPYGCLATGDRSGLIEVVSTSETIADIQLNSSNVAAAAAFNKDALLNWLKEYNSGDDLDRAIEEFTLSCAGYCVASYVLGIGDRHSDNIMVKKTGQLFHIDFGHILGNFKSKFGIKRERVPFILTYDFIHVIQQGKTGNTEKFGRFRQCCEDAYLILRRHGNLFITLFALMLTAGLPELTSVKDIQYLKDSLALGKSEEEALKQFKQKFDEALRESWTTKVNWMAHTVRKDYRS

With `Nc1cc(C(F)(F)F)c(-c2cc(N3CCOCC3)nc(N3CCOCC3)n2)cn1` [Buparlisib], the remaining activity at 1 µM on panel of 442 kinases [1] is 100%; on panel of 442 kinases [2], 100%; at panel of 442 kinases [3] it was 100%; on panel of 442 kinases [4] it was 84%. For the same molecule, the remaining activity at 10 µM on panel of 442 kinases [1] (10 µM, read-out: RIPK5 (% of control at 10 µM)) was 89%; at panel of 442 kinases [2] (10 µM, read-out: TYRO3 (% of control at 10 µM)) it was 100%; at panel of 442 kinases [3] (setting [6]) it was 100%; on panel of 442 kinases [4] (setting [6]) it was 100%.
`Cn1c(=O)n(-c2ccc(C(C)(C)C#N)cc2)c2c3cc(-c4cnc5ccccc5c4)ccc3ncc21` [Dactolisib, 2-methyl-2-[4-(3-methyl-2-oxo-8-quinolin-3-yl-2,3-dihydroimidazo[4,5-c]quinolin-1-yl)-phenyl] propionitrile]: the remaining activity at 1 µM was determined as 80% on panel of 442 kinases [1], 100% on panel of 442 kinases [2], 94% at panel of 442 kinases [3] and 64% at panel of 442 kinases [5].
In the case of `FC(F)c1nc2ccccc2n1-c1nc(N2CCOCC2)nc(N2CCOCC2)n1` [ZSTK474, 2-(difluoromethyl)-1-[4,6-di(4-morpholinyl)-1,3,5-triazin-2-yl]-1H-benzimidazole], the remaining activity at 1 µM at panel of 442 kinases [1] came to 92%; on panel of 442 kinases [2] it was 88%; on panel of 442 kinases [3], 100%; on panel of 442 kinases [5] it was 0%; on panel of 442 kinases [4], 97%.
Taken in the same sequence, the figures for `COc1ncc(-c2ccc3nccc(-c4ccnnc4)c3c2)cc1NS(=O)(=O)c1ccc(F)cc1F` [Omipalisib] were 100%, 100%, 100%, 0% and 87%.
